{"source": "patent US20250114337A1", "about": "“METHODS FOR VASCULAR REGENERATION AND WOUND TREATMENT” (THE METHODIST HOSPITAL, priority 2022, published 2025)", "test_system": "ischemic hindlimb model", "test": "ischemic hindlimb model in fibroblast lineage tracing Fsp1-Cre: R26R-EYFP mice", "assay_type": "in vivo, mouse", "conditions": "7 days post-surgery", "experimental": "Using established transdifferentiation protocol and metabolomics profiling to assess the global metabolic changes during transdifferentiation. […] To determine the role of this metabolite in transdifferentiation, the effect of Thiamet G was assessed, an inhibitor of OGA, which enhances O-GlcNAcylation. Thiamet G increased transdifferentiation efficiency in vitro. In a fibroblast lineage tracing mice, Fsp1-Cre: R26R-EYFP mice, Thiamet G increased tissue O-glycnacylation, increased capillary density and limb perfusion, and increased the number of fibroblasts transdifferentiating into endothelial cells (i.e. FSP+CD31+ cell) in an ischemic hindlimb model.\nAngiogenic transdifferentiation in limb ischemia. A fibroblast lineage tracing mouse model (Fsp1-Cre: R26R-EYFP) was used to detect transdifferentiation in vivo in a murine model of limb ischemia (Meng, S., et al., Circulation, 2020. 142 (17): p. 1647-1662). […] This population is abolished when the mice are treated with anti-inflammatory drugs, such as dexamethasone. Intriguingly, the disappearance of these cells is associated with a reduction in perfusion recovery and worsening clinical scores. Similar results are achieved when inflammatory signaling is impaired, as in Fsp1-Cre: Rela flox/flox mice. In these animals, NFκB signaling is blocked in the Fsp1+fibroblasts, associated with a dramatic reduction in transdifferentiated fibroblasts (i.e. YFP+CD144+ cells), and impaired perfusion (Meng. S., et al., Circulation, 2020. 142 (17): p. 1647-1662). […] Cluster 8 produced angiogenic cytokines, whereas Cluster 5 expressed genes associated with EC identity (i.e CD144). But only Cluster 5 could generate EC-like networks in Matrigel whereas other fibroblasts, including Cluster 8 fibroblasts, formed nodal structures typical of fibroblasts in Matrigel. The data support the idea that transdifferentiation may occur in vivo with tissue ischemia, and is dependent on inflammatory signaling. This model can be used to study the contribution of O-GlcNAcylation in transdifferentiation and limb ischemia recovery in vivo. A similar lineage tracing approach can be used with tamoxifen-inducible Col1A2-Cre/ERT: R26R-tdTomato mouse strain to study the contribution of O-GlcNAcylation in transdifferentiation and limb ischemia recovery in vivo.\nTo determine if O-GlcNAcylation enhances revascularization through transdifferentiation, fibroblasts lineage tracing Fsp1-Cre: R26R-EYFP mice strain were utilized where it was previously observed the in situ transdifferentiation phenomenon (FIG. 20A). In this model, all the fibroblasts expressing Fsp1 (fibroblast-specific protein1) are marked with YFP. With this model, a significant increase in the FSP-expressing cell progeny in the ischemic limb was identified compared with the sham-operated limb 3 days after the femoral artery ligation was perform (FIG. 20A) and compare the YFP+ cells over the different time points (FIG. 20A). The percentage of the YFP+CD31+CD11b-cell population which is considered the transdifferentiation population was analyzed further. […] To determine the role of the O-GlcNAcylation on the transdifferentiation, the Fsp1-Cre: R26R-EYFP mice that are undergoing vascular recovery with OSMI were treated, and the transdifferentiation population in the limb muscle tissue 7 days post-surgery was analyzed."}
{"compound": "CCOC(=O)CN(Cc1cccs1)C(=O)[C@H](NS(=O)(=O)c1cc2ccc(=O)[nH]c2cc1Cl)c1ccccc1OC", "note": "[OSMI]", "values": [{"measurement": "transdifferentiation population (YFP+CD31+CD11b-) in limb muscle tissue", "result": "significantly reduced"}]}
